The subject of series [1] is BxPC-3 cells. As to the kind of experiment: MTT cytotoxicity assay in BxPC-3 cells. The class given is cell-based, Human. The following applies: 48 h. As to the method:
(§1) Figure 3 Growth-inhibitory effects of gemcitabine and of its amino-acid-conjugated derivatives on BxPC-3, MIAPaCa-2, A549, MDA-MB-231 B16 cells after exposure to 1 μM concentrations for 48 h, as estimated by MTT assay (mean ± SD, n = 3). Experiments were performed three times independently. * p < 0.05, compared with free gemcitabine group.
(§2) Human pancreatic cancer cells (MIAPaCa-2, BxPC-3 and AsPC-1), lung cancer cell lines (A549), human breast cancer cell lines (MDA-MB-231) and melanoma cell lines (B16) were purchased from the American Type Culture Collection (Manassas, VA, USA). MIAPaCa-2 and B16-F10 cells were cultured in Dulbecco’s modified Eagle’s medium (DMEM) supplemented with 10% heat-inactivated fetal bovine serum (FBS) and 1% penicillin/streptomycin. Aspc-1, BxPC-3 MDA-MB-231 and A549 cells were cultured in Roswell Park Memorial Institute 1640 (RPMI-1640) medium supplemented with 10% FBS and 1% penicillin/streptomycin. FBS and all other reagents used for cell culture were purchased from Invitrogen (Carlsbad, CA, USA). Cultures were maintained at 37 °C in 95% air /5% CO2 humidified atmosphere.
Cancer cell viabilities after treatment with gemcitabine or its derivatives were quantified using MTT assay as described previously. Briefly, cells were seeded onto 96-well plates at 3 × 10^3 cells per well and incubated at 37 °C. The cells were treated with each compound at indicated concentrations for 48 h and then, 20 μL of MTT labeling mixture was added to each well. After incubation for 4 h, optical densities (OD) were determined using a microplate reader by measuring absorbances at 540 nm.

Series [2] deals with BxPC-3 cells. Description: Apoptosis: cleaved PARP western blot and TUNEL assay. It counts as cell-based, Human. The following applies: 1 µM, 24 h treatment.
Method: BxPC-3 cells were washed with DPBS and lysed with RIPA buffer (Biosesang, Seongnam, Korea) containing 150 mM NaCl, 1% Triton X-100, 1% sodium deoxycholate, 0.1% SDS, 50 mM Tris-HCl (pH 7.5), 2 mM EDTA (pH 8.0), and Xpert protease inhibitor and phosphatase inhibitor Cocktail (GenDEPOT, Barker, TX, USA). Proteins were separated by 8% or 15% SDS-PAGE (sodium dodecylsulfate-polyacrylamide gel electrophoresis) and transferred to polyvinylidene fluoride (PVDF) membranes. […] Antibody binding was detected using an enhanced chemiluminescence (ECL) reagent (Bio-Rad, Hercules, CA, USA) using primary antibodies specific to proteins of interest, and proteins were detected using X-ray film and enhanced chemiluminescence reagent. Primary antibodies against the following were used: LAT-1, cleaved PARP (Cell Signaling Technologies, Beverly, MA, USA), GAPDH (Abcam, Cambridge, MA, USA), and β-actin (Sigma Aldrich, St. Louis, MO, USA). Secondary antibodies were purchased from Cell signaling technology.
TUNEL assay was conducted with the ApopTag® Peroxidase In Situ Apoptosis Detection Kit (Merck Millipore, Burlington, MA, USA). Briefly, BxPC-3 cells were seeded onto 18-mm cover glasses in medium and grown to ~70% confluence over 24 h.
Series [3] concerns MDA-MB-231 (breast cancer cells). As to the kind of experiment: MTT cytotoxicity assay in MDA-MB-231 cells. It counts as cell-based, human. The following applies: 1 μM, 48 h. As to the method: as §1, §2
(§3) Cancer cell viabilities after treatment with gemcitabine or its derivatives were quantified using MTT assay as described previously. […] After incubation for 4 h, optical densities (OD) were determined using a microplate reader by measuring absorbances at 540 nm.

The subject of the next series is MIAPaCa-2 cells. As to the kind of experiment: MTT cytotoxicity assay in MIAPaCa-2 cells. The following applies: 1 μM, 48 h. The class given is cell-based, Human. As to the method: as §1, §2, §3
Series [4] can be described thus: Systemic (intravenous) pharmacokinetics in rats. It counts as in vivo, rat. The following applies: 4 mg/kg i.v. As to the method: This study was performed in male Sprague-Dawley (SD) rats (Orient Bio, Sungnam, Korea), as described previously. Rats were provided water and food ad libitum and maintained under a 12:12-h light/dark cycle. On the experimental day, a femoral vein and contralateral artery were cannulated using an Intramedic™ polyethylene tube (PE-50; Becton Dickinson Diagnostics, Sparks, MD, USA) under Zoletil induced anesthesia (50 mg/kg intramuscularly; Virbac, Carros, France). For the intravenous pharmacokinetic study, Gem-Thr or gemcitabine solution were injected into a femoral vein at 4 mg/kg. Blood (~0.22 mL) was taken from the femoral artery at 0 (blank), 1, 5, 15, 30, 60, 120, 240, 480, 720, or 1440 min. To prevent blood loss, the same volume of normal saline was injected intravenously at each time point. Plasma was obtained immediately centrifugation and then stored at −80 °C prior to LC-MS/MS.
The pharmacokinetic parameters of Gem-Thr, gemcitabine, Gem-Thr plus gemcitabine, and free gemcitabine were calculated by non-compartmental analysis using WinNonlin (Version 3.1; Pharsight, Mountain View, CA, USA), as described previously (Park et al., 2016).
To determine concentrations of Gem-Thr and gemcitabine in rat plasma, plasma samples were deproteinized by adding two volumes of acetonitrile containing internal standard (phenacetin). After mixing, mixtures were centrifuged at 14,000× g for 10 min.
Aliquots of supernatants (2-µL) were injected into the LC-MS/MS system, which consisted of an Agilent HPLC and an Agilent 6490 QQQ mass spectrometer equipped with an ESI+ Agilent Jet Stream ion source (Agilent Technologies, Santa Clara, CA, USA). The separation of each drug and IS from endogenous plasma substances was achieved on a Synergi Polar-RP 80A column (150 × 2.0 mm, 4 μm; Phenomenex, Torrance, CA, USA). The mobile phase consisted of 0.1% formic acid and acetonitrile (20:80, v/v) at a flow rate of 0.2 mL/min. The column and autosampler tray were maintained at 25 and 4 °C, respectively. Gemcitabine, Gem-Thr, and the IS were quantified by multiple-reaction monitoring (MRM) in positive electrospray ionization mode. Respective precursor-to-product ion transitions were as follows: Gemcitabine, 264.1→112.1, Gem-Thr, 387.1→343.2, and IS (phenacetin), 180.2→162.2. Data acquisition was performed using Mass Hunter software (ver. A.02.00; Agilent Technologies).

The next series has as its system B16 (melanoma cells). Description: MTT cytotoxicity assay in B16 cells. The following applies: 1 μM, 48 h. It counts as cell-based.
The subject of the next series is A549 (lung cancer cells). As to the kind of experiment: MTT cytotoxicity assay in A549 cells. The class given is cell-based. The following applies: 1 μM, 48 h. As to the method:
as §1, §2, §3

Details of series [5]: method as in PMID 18519786. The following applies: in man; cited from earlier work.
On the set-up of series [6]: method as in PMID 19860433. The following applies: cited from earlier work.
The conditions of series [7]: 37 °C. As to the method:
The metabolic stability of Gem-Thr was examined in the presence of PBS (pH 7.4), rat plasma, or liver microsomes as described previously (Maeng et al., 2014). Fresh rat plasma was obtained from sacrificed SD rats (260–280 g) after centrifuging blood (12,000× g, 15 min). Rat liver microsomes were obtained from BD Gentest. Gem-Thr (10 µM) was spiked into PBS, blank rat plasma, or liver microsomes (1 mg protein/mL) and incubated in a shaking water bath at 37 °C for 8 h. Aliquots (50-µL) were taken after 0, 15, 30, 60, 120, 240, […], or 480 min of incubation, immediately pretreated with ice-cold methanolic solution including the internal standard, vortexed for 3 min and centrifuged (12,000× g, 10 min). Supernatants were stored at −80 °C until required for analysis.

The mark [8] stands for this setting: analyte = administered compound.

Each structure is given as a SMILES string. “Also recorded” adds a separate entry of the source. Like-named read-outs stand apart in the source and are kept apart here.

Method for B16 (melanoma cells): Human pancreatic cancer cells (MIAPaCa-2, BxPC-3 and AsPC-1) [21], lung cancer cell lines (A549) [22], human breast cancer cell lines (MDA-MB-231) [23] and melanoma cell lines (B16) [24] were purchased from the American Type Culture Collection (Manassas, VA, USA). MIAPaCa-2 and B16-F10 cells were cultured in Dulbecco’s modified Eagle’s medium (DMEM) supplemented with 10% heat-inactivated fetal bovine serum (FBS) and 1% penicillin/streptomycin. Aspc-1, BxPC-3 MDA-MB-231 and A549 cells were cultured in Roswell Park Memorial Institute 1640 (RPMI-1640) medium supplemented with 10% FBS and 1% penicillin/streptomycin. […] Cultures were maintained at 37 °C in 95% air /5% CO2 humidified atmosphere.
Cancer cell viabilities after treatment with gemcitabine or its derivatives were quantified using MTT assay as described previously [25]. Briefly, cells were seeded onto 96-well plates at 3 × 10^3 cells per well and incubated at 37 °C. The cells were treated with each compound at indicated concentrations for 48 h and then, 20 μL of MTT labeling mixture was added to each well. After incubation for 4 h, optical densities (OD) were determined using a microplate reader by measuring absorbances at 540 nm.

In the case of `Nc1ccn([C@@H]2O[C@H](CO)[C@@H](O)C2(F)F)c(=O)n1` [gemcitabine, 2′-2′-difluorodeoxycytidine], the “anti-cancer effect (cytotoxicity)” value in the series with BxPC-3 cells [1] (1 μM), with MIAPaCa-2 cells and in the series with B16 (melanoma cells) was “significant anti-cancer effects” in each case. The viability at 1 µM with BxPC-3 cells [1] (Homo sapiens, read-out: cell viability) was determined as 54.1%. In addition, the “apoptosis (cleaved PARP, TUNEL positive cells)” value in the series on BxPC-3 cells [2] is “induced apoptosis significantly”. Also, the “anti-cancer effect versus vehicle treated controls” value (in [3]; in the series on A549 (lung cancer cells)) was “neither gemcitabine nor gemcitabine derivatives had any significant anti-cancer effect” in each case. Besides, in [4] (male, Sprague-Dawley, rat, plasma, iv, analyte = administered compound), the clearance is 4.23 ± 0.23 mL/min/kg. For the same molecule, in series [4] (male, Sprague-Dawley, rat, plasma, iv, analyte = administered compound, read-out: AUC (converted)), the AUC is 15800 ng·h/mL. Further, in series [4] (male, Sprague-Dawley, rat, plasma, iv, analyte = administered compound, read-out: MRT (converted)), the MRT was 9.7 h. The half-life in series [4] (male, Sprague-Dawley, rat, plasma, iv, analyte = administered compound, read-out: Terminal t1/2) was 8.88 ± 2.96 h; in [5] it was 9 min. Further, the Vd in series [4] (male, Sprague-Dawley, rat, plasma, iv, analyte = administered compound, read-out: Vss) is 2.48 ± 0.867 L/kg. In addition, the “oral bioavailability (BA)” value in series [6] is given as “low oral bioavailability”.

For `C[C@@H](O)[C@H](N)C(=O)Nc1ccn([C@@H]2O[C@H](CO)[C@@H](O)C2(F)F)c(=O)n1` [Gem-Thr, (2S,3R)-2-Amino-N-(1-((2R,4R,5R)-3,3-difluoro-4-hydroxy-5-(hydroxylmethyl)tetra-hydrofuran-2-yl)-2-oxo-1,2-dihydropyrimidin-4-yl)-3-hydroxybutanamide2-(4-((pyridin-3-ylmethyl)amino)quinazolin-2-yl)phenol], in the series on BxPC-3 cells [1] (1 μM), the “anti-cancer effect (cytotoxicity)” value is “most potent anticancer effect; also recorded: more effective than free gemcitabine” and the cell viability worked out at 44.7%. For the same molecule, in the series on BxPC-3 cells [2], the “apoptosis (cleaved PARP, TUNEL positive cells)” value is given as “induced apoptosis significantly”. Besides, the “anti-cancer effect (cytotoxicity)” value with MIAPaCa-2 cells is “most potent anticancer effect; also recorded: more effective than free gemcitabine”. Besides, in [4], the “AUC of sum of Gem-Thr and gemcitabine (metabolite) versus gemcitabine alone” value was 3.62 fold. Besides, in [4] (setting [8]), the AUC came out at 28564.2 ± 18040 ng·h/mL, the CL turned out to be 2.85 ± 1.33 mL/min/kg, the MRT came out at 3.953 ± 0.3478 h and the “Terminal t1/2” value was found to be 3.9363 ± 0.849 h. For the same molecule, the Vss in series [4] (setting [8]) worked out at 0.66235 ± 0.2814 L/kg. The “increase of systemic exposure (AUC of gemcitabine) versus free gemcitabine” value in series [4] (formed gemcitabine vs free gemcitabine) is 1.83 fold. For the same molecule, in [7] (10 µM, after 8 h), the “fraction of Gem-Thr metabolized in rat plasma” value was 20%. Moreover, the “metabolic stability in rat plasma” value in series [7] (10 µM, up to 8 h) is “metabolically stable”. Further, the “stability in PBS” value in [7] (PBS pH 7.4, 10 µM, up to 8 h) was “metabolically stable”. Further, in [7] (rat liver microsomes 1 mg protein/mL, 10 µM, up to 8 h), the “metabolic stability in rat liver microsomal fractions” value is “metabolically stable”.

Values taken from article PMC6222828, “Synthesis of Gemcitabine-Threonine Amide Prodrug Effective on Pancreatic Cancer Cells with Improved Pharmacokinetic Properties” (Molecules : A Journal of Synthetic Chemistry and Natural …, 2018).
